Laboratory results from patent US9856279B2 (AGIOS PHARMACEUTICALS, INC, priority 2011, dated 2018).
Like-named read-outs stand apart in the source and are kept apart here.

Key:
[1] = biological target: IDH1 R132H (Homo sapiens, UniProt O75874, R132H); assay: Assay for IDH1 R132H inhibitors (NADPH/aKG, resazurin detection); format: biochemical; details: enzyme assay of Example 12; read-out: IDH1R132H IC50
Summary of the method: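 Read-out is resorufin fluorescence (Ex544/Em590) 5 min after adding a 30 μM resazurin detection mix. Before that, mutant enzyme (0.2 μg/ml in its mix) ran 50 min at room temperature with compound, 8 uM NADPH and 2 mM aKG (mix levels) in Tris pH 7.5 with NaCl, MgCl2, BSA.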

[2] = system: HT1080 cells; assay: Cellular assay for IDH1m inhibitors: inhibition of 2-HG production (LC-MS, 48 hours) in HT1080 cells; format: cell-based; details: Homo sapiens
Summary of the method: (§1)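 Read-out: 2-HG in culture medium by LC-MS after 48 h compound exposure; IC50 = 50% reduction vs DMSO control. Cells plated 5000/well in DMEM/10% FBS, 37 °C, 5% CO2; DMSO 0.2% final.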

[3] = system: U87MG cells; assay: Cellular assay for IDH1m inhibitors: inhibition of 2-HG production (LC-MS, 48 hours) in U87MG cells; format: cell-based; details: Homo sapiens, U-87 MG
Summary of the method: as §1

[4] = HT-1080, inhibition of 2-HG production, HT1080 cells, read-out: HT1080 IC50
[5] = inhibition of 2-HG production, U87R132H cells, read-out: U87R132H IC50

IDH1 R132H, sequence (O75874 whole entry R132H): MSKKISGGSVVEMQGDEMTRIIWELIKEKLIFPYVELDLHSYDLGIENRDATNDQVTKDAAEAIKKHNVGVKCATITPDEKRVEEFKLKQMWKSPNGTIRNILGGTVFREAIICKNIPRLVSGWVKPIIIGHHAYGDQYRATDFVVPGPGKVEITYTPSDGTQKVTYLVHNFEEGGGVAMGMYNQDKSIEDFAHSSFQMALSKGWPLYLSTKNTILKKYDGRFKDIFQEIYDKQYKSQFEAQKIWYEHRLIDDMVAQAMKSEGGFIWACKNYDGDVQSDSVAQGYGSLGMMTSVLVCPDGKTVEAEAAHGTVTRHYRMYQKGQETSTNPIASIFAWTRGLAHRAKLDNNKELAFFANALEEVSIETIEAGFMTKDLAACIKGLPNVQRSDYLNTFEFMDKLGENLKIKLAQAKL

Structure (SMILES)	IC50 [1] [nM]	IC50 [2, 4] [µM]	IC50 [3, 5] [µM]	IC50 ([2]; HT-1080, read-out: HT1080 IC50 (μM)) [µM]	IC50 ([3]; read-out: U87R132H IC50 (μM)) [µM]
C=CC(=O)N1CCC=C(c2c(C3CC3)nc(N3CCN(C(=O)C[C@H]4CCO4)[C@H](C4CC4)C3)c(C#N)c2C)C1 [Compound 789, 5-(1-acryloyl-1,2,5,6-tetrahydropyridin-3-yl)-6-cyclopropyl-2-((R)-3-cyclopropyl-4-(2-((R)-oxetan-2-yl)acetyl)piperazin-1-yl)-4-methylnicotinonitrile]	< 500	< 0.5	< 0.5	–	–
COCCC(=O)N1CCN(c2nc(C3CC3)c(Nc3cc(C#N)ccn3)cc2C#N)C[C@H]1C1CC1 [Compound 792, (R)-5-(4-cyanopyridin-2-ylamino)-6-cyclopropyl-2-(3-cyclopropyl-4-(3-methoxypropanoyl)piperazin-1-yl)nicotinonitrile]	< 500	1 to 10	1 to 10	–	–
C=Cc1cnnc(-c2c(C3CC3)nc(N3CCN(C(=O)C[C@H]4CCO4)[C@H](C(C)C)C3)c(C#N)c2C)c1 [Compound 793, 6-cyclopropyl-2-((R)-3-isopropyl-4-(2-((R)-oxetan-2-yl)acetyl)piperazin-1-yl)-4-methyl-5-(5-vinylpyridazin-3-yl)nicotinonitrile]	< 500	< 0.5	< 0.5	–	–
C=Cc1cc(-c2cc(C#N)c(N3CCN(C(=O)CC[C@@H]4CCO4)[C@H](C4CC4)C3)nc2C2CC2)ccn1 [Compound 794, 2-cyclopropyl-6-((R)-3-cyclopropyl-4-(3-((R)-oxetan-2-yl)propanoyl)piperazin-1-yl)-2′-vinyl-[3,4′-bipyridine]-5-carbonitrile]	< 500	< 0.5	< 0.5	–	–
C=Cc1cc(-c2c(C3CC3)nc(N3CCN(C(=O)CCc4ccco4)[C@H](C4CC4)C3)c(C#N)c2C)ccn1 [Compound 796, (R)-2-cyclopropyl-6-(3-cyclopropyl-4-(3-(furan-2-yl)propanoyl)piperazin-1-yl)-4-methyl-2′-vinyl-3,4′-bipyridine-5-carbonitrile]	< 500	< 0.5	< 0.5	–	–
C=Cc1cc(-c2c(C3CC3)nc(N3CCN(C(=O)CCC4CCCC4)[C@H](C4CC4)C3)c(C#N)c2C)ccn1 [Compound 797, (R)-6-(4-(3-cyclopentylpropanoyl)-3-cyclopropylpiperazin-1-yl)-2-cyclopropyl-4-methyl-2′-vinyl-3,4′-bipyridine-5-carbonitrile]	< 500	< 0.5	< 0.5	–	–
C=Cc1cc(Nc2c(C3CC3)nc(N3CCN(C(=O)CCO)[C@H](C(C)C)C3)c(C#N)c2C)ccn1 [Compound 799, (R)-6-cyclopropyl-2-(4-(3-hydroxypropanoyl)-3-isopropylpiperazin-1-yl)-4-methyl-5-((2-vinylpyridin-4-yl)amino)nicotinonitrile]	< 500	< 0.5	< 0.5	–	–
C=Cc1cc(-c2cc(C#N)c(N3CCN(C(=O)CCC4CCCO4)[C@H](C4CC4)C3)nc2C2CC2)ccn1 (stereo partly drawn) [Compound 800, 2-cyclopropyl-6-((3R)-3-cyclopropyl-4-(3-(tetrahydrofuran-2-yl)propanoyl)piperazin-1-yl)-2′-vinyl-3,4′-bipyridine-5-carbonitrile]	< 500	< 0.5	< 0.5	–	–
C=Cc1cc(-c2cc(C#N)c(N3CCN(C(=O)CC4CCCO4)[C@H](C4CC4)C3)nc2C2CC2)ccn1 (stereo partly drawn) [Compound 801, 2-cyclopropyl-6-((3R)-3-cyclopropyl-4-(2-(tetrahydrofuran-2-yl)acetyl)piperazin-1-yl)-2′-vinyl-[3,4′-bipyridine]-5-carbonitrile]	< 500	< 0.5	< 0.5	–	–
C=Cc1cc(-c2c(C3CC3)nc(N3CCN(C(=O)CCC4CCO4)[C@H](C4CC4)C3)c(C#N)c2C)ccn1 (stereo partly drawn) [Compound 803, 2-cyclopropyl-6-((3R)-3-cyclopropyl-4-(3-(oxetan-2-yl)propanoyl)piperazin-1-yl)-4-methyl-2′-vinyl-[3,4′-bipyridine]-5-carbonitrile]	< 500	< 0.5	< 0.5	–	–
C=Cc1cc(-c2cc(C#N)c(N3CCN(C(=O)CCCOP(=O)(OC(C)(C)C)OC(C)(C)C)[C@H](C4CC4)C3)nc2C2CC2)ccn1 [Compound 804, (R)-di-tert-butyl 4-(4-(5-cyano-2-cyclopropyl-2′-vinyl-3,4′-bipyridin-6-yl)-2-cyclopropylpiperazin-1-yl)-4-oxobutyl phosphate]	< 500	< 0.5	0.5 to 1	–	–
C=Cc1cc(-c2c(C3CC3)nc(N3CCN(C(=O)CC4CCCO4)[C@H](C4CC4)C3)c(C#N)c2C)ccn1 (stereo partly drawn) [Compound 805, 2-cyclopropyl-6-((3R)-3-cyclopropyl-4-(2-(tetrahydrofuran-2-yl)acetyl)piperazin-1-yl)-4-methyl-2′-vinyl-[3,4′-bipyridine]-5-carbonitrile]	< 500	< 0.5	< 0.5	–	–
C=Cc1cc(-c2c(C3CC3)nc(N3CCN(C(=O)CC4CCC(=O)O4)[C@H](C4CC4)C3)c(C#N)c2C)ccn1 (stereo partly drawn) [Compound 806, 2-cyclopropyl-6-((3R)-3-cyclopropyl-4-(2-(5-oxotetrahydrofuran-2-yl)acetyl)piperazin-1-yl)-4-methyl-2′-vinyl-[3,4′-bipyridine]-5-carbonitrile]	< 500	< 0.5	< 0.5	–	–
C=Cc1cc(-c2cc(C#N)c(N3CCN(C(=O)CCOP(=O)(O)O)[C@H](C4CC4)C3)nc2C2CC2)ccn1 [Compound 810, Sodium (R)-3-(4-(5-cyano-2-cyclopropyl-2′-vinyl-[3,4′-bipyridin]-6-yl)-2-cyclopropylpiperazin-1-yl)-3-oxopropyl phosphate]	500 to 1000	–	–	< 0.5	< 0.5
C=Cc1cc(-c2c(C3CC3)nc(N3CCN(C(=O)CN4CCC4=O)[C@H](C4CC4)C3)c(C#N)c2C)ccn1 [Compound 811]	< 500	< 0.5	< 0.5	–	–
C=Cc1ccnc(Nc2cc(C#N)c(N3CCN(C(=O)CCC4CCO4)[C@H](C4CC4)C3)nc2C2CC2)c1 (stereo partly drawn) [Compound 812, 6-cyclopropyl-2-((3R)-3-cyclopropyl-4-(3-(oxetan-2-yl)propanoyl)piperazin-1-yl)-5-((4-vinylpyridin-2-yl)amino)nicotinonitrile]	< 500	< 0.5	< 0.5	–	–
C=Cc1ccnc(Nc2cc(C#N)c(N3CCN(C(=O)CC4CCCO4)[C@H](C4CC4)C3)nc2C2CC2)c1 (stereo partly drawn) [Compound 813, 6-cyclopropyl-2-((3R)-3-cyclopropyl-4-(2-(tetrahydrofuran-2-yl)acetyl)piperazin-1-yl)-5-((4-vinylpyridin-2-yl)amino)nicotinonitrile]	< 500	< 0.5	< 0.5	–	–
